pIC50: −log10 of the molar value. The source made the active and inactive calls. The rule behind the calls is not given here.
Experiments:
Human adenovirus 5 [1] = assay: Antiviral activity against HAdV5 infected in human A549 cells assessed as inhibition of viral genome entry in nucleus by measuring nuclear associated viral DNA level at 50 uM after 45 mins by real time PCR method (reference value: 78.55 +/- 1.37%); assay type: functional; parameters: scale not given: the % may be the effect or the level left
[2] = Antiviral activity against HAdV16 infected in human A549 cells assessed as reduction in viral yield at 50 uM after 48 hrs by virus burst size assay relative to control; assay type: functional, Human adenovirus 16
Human adenovirus 5 [3] = assay: Antiviral activity against HAdV5 infected in human A549 cells assessed as reduction in viral yield at 50 uM after 48 hrs by virus burst size assay relative to control; assay type: functional
Human adenovirus 5 [4] = assay: Antiviral activity against HAdV5 infected in 293beta5 cells assessed as inhibition of plaque formation at 10 uM after 7 days by GFP reporter gene assay relative to control; assay type: functional; conditions: Human mastadenovirus C, 293beta5, 168 h
Human adenovirus 5 [5] = assay: Antiviral activity against HAdV5 assessed as inhibition of E1A mRNA transcription measured 6 hrs post infection; assay type: functional, organism-based
Human adenovirus 5 [6] = assay: Antiviral activity against HAdV5 infected in 293beta5 cells assessed as inhibition of plaque formation after 7 days by GFP reporter gene assay; assay type: functional, organism-based; conditions: for pIC50: Human mastadenovirus C, 293beta5, 168 h
[7] = Antiviral activity against HAdV16 infected in 293beta5 cells assessed as inhibition of plaque formation after 7 days by GFP reporter gene assay; assay type: functional, cell-based, Human adenovirus 16; conditions: Human mastadenovirus B, 293beta5, 168 h
[8] = Selectivity index, ratio of CC50 for human A549 cells to IC50 for inhibition of HAdV16 plaque formation in 293beta5 cells; assay type: functional
[9] = Selectivity index, ratio of CC50 for human A549 cells to IC50 for inhibition of HAdV5 plaque formation in 293beta5 cells; assay type: functional
[10] = Cytotoxicity against human A549 cells assessed as cell viability after 48 hrs by Alamar blue assay; assay type: cell-based
Human adenovirus 5 [11] = assay: Antiviral activity against HAdV5 infected in human A549 cells assessed as inhibition of viral entry at 50 uM preincubated for 45 mins followed by cell addition measured after 48 hrs by GFP reporter gene assay relative to control; assay type: functional; conditions: Human mastadenovirus C
Human adenovirus 5 [12] = assay: Antiviral activity against HAdV5 infected in human A549 cells assessed as inhibition of viral entry preincubated for 45 mins followed by cell addition measured after 48 hrs by GFP reporter gene assay; assay type: functional, organism-based; conditions: for pIC50: Human mastadenovirus C
Human adenovirus 5 [13] = assay: Antiviral activity against HAdV5 infected in human A549 cells assessed as inhibition of viral DNA replication at 50 uM after 24 hrs by quantitative real time PCR method relative to control; assay type: functional; conditions: Human mastadenovirus C, A549, 24 h
A549 = assay: Effect on GAPDH gene expression in human A549 cells at 50 uM after 24 hrs by quantitative real time PCR method; assay type: ADME, cell-based; conditions: a549, 24 h

pIC50 (Human adenovirus 5 [6])	pIC50 [7]	pIC50 (Human adenovirus 5 [12])	SMILES	Activity (Human adenovirus 5 [1])	fold change (FC) [2]	fold change (FC) (Human adenovirus 5 [3])	inhibition at 10 µM (Human adenovirus 5 [4])	inhibition (Human adenovirus 5 [5])	inhibition (Human adenovirus 5 [6])	Ratio CC50/IC50 [8]	Ratio CC50/IC50 [9]	CC50 at 48 h [10]	inhibition at 50 µM (Human adenovirus 5 [11])	inhibition (Human adenovirus 5 [12])	inhibition at 50 µM (Human adenovirus 5 [13])	Activity (A549)
5.96	5.74	–	O=C(c1cc2ccccc2o1)N1CCN(C(=O)Nc2cc(C(F)(F)F)ccc2Cl)C(c2ccccc2)C1 (configuration not stated)	85%	33.2	60.3	97%	inactive	Dose-dependent effect	72.7	116.2	131 µM	30%	–	–	–
5.68	5.46	4.57	O=C(c1cc2ccccc2o1)N1CCN(C(=O)Nc2ccc([N+](=O)[O-])cc2)C(c2ccccc2)C1 (configuration not stated)	77.99%	34.6	35.7	100%	–	Dose-dependent effect	55.4	93.5	194 µM	84%	Dose-dependent effect	80.9%	Non-toxic
5.47	5.32	4.49	CC(C)(C)OC(=O)N1CCN(C(=O)Nc2ccc([N+](=O)[O-])cc2)C(c2ccccc2)C1 (configuration not stated)	77.96%	265.5	211.7	96%	–	Dose-dependent effect	33.6	47.3	161 µM	80%	Dose-dependent effect	80.7%	Non-toxic

From ChEMBL document CHEMBL3826947, “New 4-Acyl-1-phenylaminocarbonyl-2-phenylpiperazine Derivatives as Potential Inhibitors of Adenovirus Infection. Synthesis, Biological Evaluation, and Structure-activity Relationships” (J Med Chem, 2016)
